Experimental data taken from patent US8952024B2, “Herbicidal pyrimidone derivatives” (E I du Pont de Nemours and Company, priority 2009, dated 2015).

Tests used:
Type in all cases: in vivo
[1] = tested on: barnyardgrass (Echinochloa crus-galli); test: Test A pre-/postemergence plant response
Outline: (§1)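 Plants grown from seed in a loam soil and sand mix received test compounds both as a preemergence soil spray and, at the same time, as a postemergence spray at the one- to two-leaf stage. Injury was judged visually against untreated controls roughly ten days later, 0 meaning no effect and 100 complete control.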

[2] = tested on: corn (Zea mays); test: Test A pre-/postemergence plant response
Outline: as §1

[3] = tested on: giant foxtail (Setaria faberii); test: Test A pre-/postemergence plant response
Outline: as §1

[4] = tested on: large crabgrass (Digitaria sanguinalis); test: Test A pre-/postemergence plant response
Outline: as §1

[5] = tested on: morningglory (Ipomoea spp.); test: Test A pre-/postemergence plant response
Outline: as §1

[6] = tested on: pigweed (Amaranthus retroflexus); test: Test A pre-/postemergence plant response
Outline: as §1

[7] = tested on: velvetleaf (Abutilon theophrasti); test: Test A pre-/postemergence plant response
Outline: as §1

[8] = tested on: wheat (Triticum aestivum); test: Test A pre-/postemergence plant response
Outline: as §1

[9] = tested on: winter barley (Hordeum vulgare); test: Test B postemergence plant response; settings: for Barley plant response rating (0 to 100 scale): 0 is no effect
Excerpt: At the same time, plants selected from these crop and weed species and also winter barley (Hordeum vulgare), canarygrass (Phalaris minor), chickweed (Stellaria media) and windgrass (Apera spica-venti) were planted in pots containing Redi-Earth® planting medium (Scotts Company, 14111 Scottslawn Road, Marysville, Ohio 43041) comprising spaghnum peat moss, vermiculite, wetting agent and starter nutrients and treated with postemergence applications of some of the test chemicals formulated in the same manner. Plants ranged in height from 2 to 18 cm (1- to 4-leaf stage) for postemergence treatments.
Treated plants and controls were maintained in a greenhouse for 13 to 15 days, after which time all treated plants were visually evaluated and compared to controls. Plant response ratings, summarized in Table B, are based on a scale of 0 to 100 where 0 is no effect and 100 is complete control. A dash (-) response means no test result.

[10] = tested on: barnyardgrass (Echinochloa crus-galli); test: Test B flooded paddy test; settings: for Plant response rating, Flood, Barnyardgrass: 250 g ai/ha, flooded paddy test, visual rating on 0 to 100 scale (0 no effect, 100 complete control) after 13 to 15 days; for Plant response rating, Barnyardgrass: Flood (flooded paddy test), 13 to 15 days; for Barnyardgrass plant response rating: Flood, 31 g ai/ha, scale 0 to 100 (0 no effect, 100 complete control)
Outline: (§2)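 Plants were grown to the 2-leaf stage, then pots were flooded to 3 cm above the soil and compounds were applied directly into the paddy water. That depth was held throughout. After 13 to 15 days in a greenhouse, injury was visually rated against controls on a 0–100 scale.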

[11] = tested on: ducksalad (Heteranthera limosa); test: Test B flooded paddy test; settings: for Plant response rating, Flood, Ducksalad: 250 g ai/ha, flooded paddy test, visual rating on 0 to 100 scale (0 no effect, 100 complete control) after 13 to 15 days; for Plant response rating, Ducksalad: Flood (flooded paddy test), 13 to 15 days; for Ducksalad plant response rating: Flood, 31 g ai/ha, scale 0 to 100 (0 no effect, 100 complete control)
Outline: as §2

[12] = tested on: rice (Oryza sativa); test: Test B flooded paddy test; settings: for Plant response rating, Flood, Rice: 250 g ai/ha, flooded paddy test, visual rating on 0 to 100 scale (0 no effect, 100 complete control) after 13 to 15 days; for Plant response rating, Rice: Flood (flooded paddy test), 13 to 15 days; for Rice plant response rating: Flood, 31 g ai/ha, scale 0 to 100 (0 no effect, 100 complete control)
Outline: as §2

[13] = tested on: umbrella sedge (Cyperus difformis); test: Test B flooded paddy test; settings: for Plant response rating, Flood, Sedge, Umbrella: 250 g ai/ha, flooded paddy test, visual rating on 0 to 100 scale (0 no effect, 100 complete control) after 13 to 15 days; for Plant response rating, Sedge, Umbrella: Flood (flooded paddy test), 13 to 15 days; for Sedge, Umbrella plant response rating: Flood, 31 g ai/ha, scale 0 to 100 (0 no effect, 100 complete control)
Outline: as §2

[14] = Postemergence, 125 g ai/ha, 0 to 100 scale where 0 is no effect and 100 is complete control
[15] = Postemergence, 500 g ai/ha, 0 to 100 scale, 0 = no effect, 100 = complete control, approx. ten days
[16] = Preemergence, 125 g ai/ha, 0 to 100 scale, 0 = no effect, 100 = complete control
[17] = Preemergence, 500 g ai/ha, visual injury, 0 to 100 scale (0 no effect, 100 complete control), approx. ten days
[18] = 62 g ai/ha, postemergence, 100 is complete control, 13 to 15 days
[19] = Postemergence, 31 g ai/ha, 0 to 100 scale (0 no effect, 100 complete control)
[20] = Postemergence, 125 g ai/ha, scale 0 to 100 (0 no effect, 100 complete control)
[21] = Postemergence, 250 g ai/ha, scale 0 to 100 (0 no effect, 100 complete control), 13 to 15 days
[22] = 62 g ai/ha, scale of 0 to 100 where 0 is no effect and 100 is complete control
[23] = 125 g ai/ha, scale 0 to 100, 0 is no effect, 100 is complete control
[24] = Postemergence, 500 g ai/ha, visual injury, 0 to 100 scale (0 no effect, 100 complete control), approx. ten days
[25] = Preemergence, 500 g ai/ha, 0 to 100 scale, 0 = no effect, 100 = complete control

O=C1CCCC(O)=C1C(=O)c1cnc(-c2ccccc2)n(C2CCOCC2)c1=O [Compound 129]
Plant response rating, Barnyardgrass [1, 14]: 90
Plant response rating, Barnyardgrass [1, 15]: 100
Plant response rating, Barnyardgrass [1, 16]: 30
Plant response rating, Barnyardgrass [1, 17]: 100
Plant response rating, Corn [2, 14]: 20
Plant response rating, Corn [2, 15]: 50
Plant response rating, Corn [2, 16]: 0
Plant response rating, Corn [2, 17]: 0
Plant response rating, Foxtail, Giant [3, 14]: 90
Plant response rating, Foxtail, Giant [3, 15]: 90
Plant response rating, Foxtail, Giant [3, 16]: 40
Plant response rating, Foxtail, Giant [3, 17]: 80
Plant response rating, Crabgrass, Large [4, 14]: 90
Plant response rating, Crabgrass, Large [4, 15]: 90
Plant response rating, Crabgrass, Large [4, 16]: 70
Plant response rating, Crabgrass, Large [4, 17]: 90
Plant response rating, Morningglory [5, 14]: 100
Plant response rating, Morningglory [5, 15]: 100
Plant response rating, Morningglory [5, 17]: 90
Plant response rating, Pigweed [6, 14]: 100
Plant response rating, Pigweed [6, 15]: 100
Plant response rating, Pigweed [6, 16]: 100
Plant response rating, Pigweed [6, 17]: 100
Plant response rating, Velvetleaf [7, 14]: 100
Plant response rating, Velvetleaf [7, 15]: 100
Plant response rating, Velvetleaf [7, 16]: 80
Plant response rating, Velvetleaf [7, 17]: 90
Plant response rating, Wheat [8, 14]: 0
Plant response rating, Wheat [8, 15]: 20
Plant response rating, Wheat [8, 16]: 0
Plant response rating, Wheat [8, 17]: 0
Barley plant response rating (0 to 100 scale) [9, 18]: 0
Plant response rating, Barley [9, 19]: 0
Plant response rating, Barley [9, 20]: 0
Plant response rating, Barley [9, 21]: 0
Plant response rating, Flood, Barnyardgrass [10]: 60
Plant response rating, Barnyardgrass [10, 22]: 0
Plant response rating, Barnyardgrass [10, 23]: 10
Barnyardgrass plant response rating [10]: 0
Plant response rating, Flood, Ducksalad [11]: 100
Plant response rating, Ducksalad [11, 22]: 90
Plant response rating, Ducksalad [11, 23]: 90
Ducksalad plant response rating [11]: 0
Plant response rating, Flood, Rice [12]: 30
Plant response rating, Rice [12, 22]: 0
Plant response rating, Rice [12, 23]: 0
Rice plant response rating [12]: 0
Plant response rating, Flood, Sedge, Umbrella [13]: 60
Plant response rating, Sedge, Umbrella [13, 22]: 0
Plant response rating, Sedge, Umbrella [13, 23]: 60
Sedge, Umbrella plant response rating [13]: 0

O=C1CCCC(O)=C1C(=O)c1cnc(-c2ccccc2)n(C2CC2)c1=O [Compound 90]
Plant response rating, Barnyardgrass [1, 14]: 80
Plant response rating, Barnyardgrass [1, 15]: 90
Plant response rating, Barnyardgrass [1, 16]: 40
Plant response rating, Barnyardgrass [1, 17]: 70
Plant response rating, Corn [2, 14]: 0
Plant response rating, Corn [2, 15]: 20
Plant response rating, Corn [2, 16]: 0
Plant response rating, Corn [2, 17]: 0
Plant response rating, Foxtail, Giant [3, 14]: 70
Plant response rating, Foxtail, Giant [3, 15]: 80
Plant response rating, Foxtail, Giant [3, 16]: 30
Plant response rating, Foxtail, Giant [3, 17]: 60
Plant response rating, Crabgrass, Large [4, 14]: 80
Plant response rating, Crabgrass, Large [4, 15]: 90
Plant response rating, Crabgrass, Large [4, 16]: 60
Plant response rating, Crabgrass, Large [4, 17]: 100
Plant response rating, Morningglory [5, 14]: 100
Plant response rating, Morningglory [5, 15]: 100
Plant response rating, Morningglory [5, 16]: 0
Plant response rating, Morningglory [5, 17]: 70
Plant response rating, Pigweed [6, 14]: 100
Plant response rating, Pigweed [6, 15]: 100
Plant response rating, Pigweed [6, 16]: 80
Plant response rating, Pigweed [6, 17]: 100
Plant response rating, Velvetleaf [7, 14]: 100
Plant response rating, Velvetleaf [7, 15]: 100
Plant response rating, Velvetleaf [7, 16]: 70
Plant response rating, Velvetleaf [7, 17]: 100
Plant response rating, Wheat [8, 14]: 0
Plant response rating, Wheat [8, 15]: 40
Plant response rating, Wheat [8, 16]: 0
Plant response rating, Wheat [8, 17]: 0
Plant response rating, Barley ([9]; 31 g ai/ha, postemergence, scale 0 to 100, 0 is no effect, 100 is complete control): 0
Barley plant response rating (0 to 100 scale) [9, 18]: 5
Plant response rating, Barley ([9]; Postemergence, 125 g ai/ha, visual rating after 13 to 15 days, scale 0 (no effect) to 100 (complete control)): 10
Plant response rating, Barley ([9]; Postemergence, 250 g ai/ha, scale 0 to 100 (0 no effect, 100 complete control)): 20
Plant response rating, Flood, Barnyardgrass [10]: 30
Plant response rating, Barnyardgrass [10, 22]: 0
Plant response rating, Barnyardgrass [10, 23]: 15
Barnyardgrass plant response rating [10]: 0
Plant response rating, Flood, Ducksalad [11]: 90
Plant response rating, Ducksalad [11, 22]: 65
Plant response rating, Ducksalad [11, 23]: 80
Ducksalad plant response rating [11]: 50
Plant response rating, Flood, Rice [12]: 0
Plant response rating, Rice [12, 22]: 0
Plant response rating, Rice [12, 23]: 0
Rice plant response rating [12]: 0
Plant response rating, Flood, Sedge, Umbrella [13]: 80
Plant response rating, Sedge, Umbrella [13, 22]: 60
Plant response rating, Sedge, Umbrella [13, 23]: 75
Sedge, Umbrella plant response rating [13]: 50

CCCCn1c(C2CC2)ncc(C(=O)C2=C(O)CCCC2=O)c1=O [Compound 193]
Plant response rating, Barnyardgrass [1, 14]: 90
Barnyardgrass plant response rating [1, 24]: 100
Plant response rating, Barnyardgrass [1, 16]: 80
Plant response rating, Barnyardgrass [1, 25]: 90
Plant response rating, Corn [2, 14]: 10
Corn plant response rating [2, 24]: 40
Plant response rating, Corn [2, 16]: 0
Plant response rating, Corn [2, 25]: 0
Plant response rating, Foxtail, Giant [3, 14]: 90
Foxtail, Giant plant response rating [3, 24]: 100
Plant response rating, Foxtail, Giant [3, 16]: 90
Plant response rating, Foxtail, Giant [3, 25]: 90
Plant response rating, Crabgrass, Large [4, 14]: 100
Crabgrass, Large plant response rating [4, 24]: 100
Plant response rating, Crabgrass, Large [4, 16]: 90
Plant response rating, Crabgrass, Large [4, 25]: 100
Plant response rating, Morningglory [5, 14]: 100
Morningglory plant response rating [5, 24]: 100
Plant response rating, Morningglory [5, 16]: 80
Plant response rating, Morningglory [5, 25]: 90
Plant response rating, Pigweed [6, 14]: 100
Pigweed plant response rating [6, 24]: 100
Plant response rating, Pigweed [6, 16]: 100
Plant response rating, Pigweed [6, 25]: 100
Plant response rating, Velvetleaf [7, 14]: 100
Velvetleaf plant response rating [7, 24]: 100
Plant response rating, Velvetleaf [7, 16]: 100
Plant response rating, Velvetleaf [7, 25]: 100
Plant response rating, Wheat [8, 14]: 40
Wheat plant response rating [8, 24]: 70
Plant response rating, Wheat [8, 16]: 0
Plant response rating, Wheat [8, 25]: 50
Plant response rating, Barley [9, 19]: 0
Plant response rating, Barley [9, 20]: 50
Plant response rating, Barley [9, 21]: 50
Plant response rating, Barley ([9]; Postemergence, 62 g ai/ha, scale 0 to 100 (0 no effect, 100 complete control)): 0
Plant response rating, Flood, Barnyardgrass [10]: 50
Plant response rating, Barnyardgrass [10, 22]: 20
Plant response rating, Barnyardgrass [10, 23]: 45
Barnyardgrass plant response rating [10]: 0
Plant response rating, Flood, Ducksalad [11]: 100
Plant response rating, Ducksalad [11, 22]: 50
Plant response rating, Ducksalad [11, 23]: 85
Ducksalad plant response rating [11]: 40
Plant response rating, Flood, Rice [12]: 65
Plant response rating, Rice [12, 22]: 15
Plant response rating, Rice [12, 23]: 30
Rice plant response rating [12]: 0
Plant response rating, Flood, Sedge, Umbrella [13]: 90
Plant response rating, Sedge, Umbrella [13, 22]: 30
Plant response rating, Sedge, Umbrella [13, 23]: 70
Sedge, Umbrella plant response rating [13]: 0
